{"source": "patent EP0852148B1", "about": "“Products having anti-microbial activity” (SION MICROTEC LTD., priority 1997, dated 1998)", "key": {"[1]": {"system": "Staphylococcus aureus (SA)", "assay": "Inhibition zone on bacterial lawn on agar plate, daily sequential transfer of sample", "type": "cell-based", "conditions": "for Growth Inhibition SA: procedure of Example 1 (cotton gauze)", "protocol": "(§1) A matrix made of cotton gauze 75 mm wide, in accordance with the British Pharmacopoeia, was soaked in 0.5% chlorohexidine gluconate (CHXG) aqueous solution at 25°C and dried by forced hot air at 60°C in a continuous process. The antimicrobial activity of the product was tested on lawns of several bacteria: Staphylococcus aureus (SA), S. epidermidis (SE), Escherichia coli (EC) and Pseudonomas aeruginosa (PA), inoculated on agar plates, by placing a sample of about 2 cm^2 on the surface of the plate, and measurement of the inhibition zone after growth of the bacteria for 18 hours at 37°C. After 24 hours, the sample was passed sequentially to another inoculated agar plate and the inhibition zone measured. This daily transfer procedure continued up to the loss of growth-inhibiting activity.\n(§2) The data set forth in the Tables herein is presented as follows: a = no inhibition b = partial growth inhibition under matrix c = total growth inhibition under matrix d = growth inhibition beyond the matrix, but at less than 1 mm E x-y = growth inhibition in mm; x = minimum distance; y = maximum distance."}, "[2]": {"system": "Escherichia coli (EC)", "assay": "Inhibition zone on bacterial lawn on agar plate, daily sequential transfer of sample", "type": "cell-based", "protocol": "(§3) The antimicrobial activity of the product was tested on lawns of several bacteria: Staphylococcus aureus (SA), S. epidermidis (SE), Escherichia coli (EC) and Pseudonomas aeruginosa (PA), inoculated on agar plates, by placing a sample of about 2 cm^2 on the surface of the plate, and measurement of the inhibition zone after growth of the bacteria for 18 hours at 37°C. After 24 hours, the sample was passed sequentially to another inoculated agar plate and the inhibition zone measured. This daily transfer procedure continued up to the loss of growth-inhibiting activity.\nas §2"}, "[3]": {"system": "S. epidermidis (SE)", "assay": "Inhibition zone on bacterial lawn on agar plate, daily sequential transfer of sample", "type": "cell-based", "protocol": "as §3, §2"}, "[4]": {"system": "Pseudonomas aeruginosa (PA)", "assay": "Inhibition zone on bacterial lawn on agar plate, daily sequential transfer of sample", "type": "cell-based", "protocol": "as §1, §2"}, "[5]": {"system": "Staphylococcus aureus (SA)", "assay": "Inhibition zone on bacterial lawn on agar plate, daily sequential transfer of sample", "type": "cell-based"}, "[6]": {"conditions": "in vivo; cited from earlier work"}, "[7]": {"system": "human immunodeficiency virus type I", "conditions": "aqueous solution, in 15 seconds; cited from earlier work"}, "[8]": {"system": "Staphylococcus aureus (SA)", "assay": "Inhibition zone on bacterial lawn on agar plate, daily sequential transfer of sample", "type": "cell-based", "conditions": "procedure of Example 1 (cotton gauze)", "protocol": "as §1, with “activity. The data set forth in the Tables herein is presented as follows: a = no inhibition b = partial growth inhibition under matrix c = total growth inhibition under matrix d = growth inhibition beyond the matrix, but at less than 1 mm E x-y = growth inhibition in mm; x = minimum distance; y = maximum distance.” for “activity.”"}, "[9]": {"conditions": "Matrix Cellular triacetate, CHXH 0.1% or CHXG 1.0%"}, "[10]": {"conditions": "Matrix Nylon, CHXH 0.1% or CHXG 1.0%"}, "[11]": {"conditions": "Matrix Polyethylene, CHXH 0.1% or CHXG 1.0%"}, "[12]": {"conditions": "Matrix Polypropylene, CHXH 0.1% or CHXG 1.0%"}, "[13]": {"conditions": "non-woven matrix (polyethylene, viscose and cotton), CHXG Concentration 2 %"}, "[14]": {"conditions": "non-woven matrix (polyethylene, viscose and cotton), CHXG Concentration 5 %"}, "[15]": {"conditions": "Matrix Nylon, CHXH 0.1% or CHXG 1.0%, hydrochloride"}, "[16]": {"conditions": "Matrix Polyethylene, CHXH 0.1% or CHXG 1.0%, hydrochloride"}, "[17]": {"conditions": "Matrix Polypropylene, CHXH 0.1% or CHXG 1.0%, hydrochloride"}}, "note": "Where a name gives a salt, the structure may show the parent alone. Read-outs that look alike come from different tables or passages of the source.", "data": [{"molecule": "CCCCCCCCCCCCCCCC[n+]1ccccc1.[Cl-]", "note": "[Example 844, Cetyl piridinium chloride]", "values": [{"measurement": "Growth Inhibition SA", "setting": "[1]; Day 1", "value": "E 3-4 mm"}, {"measurement": "Growth Inhibition SA", "setting": "[1]; Day 2", "value": "E 5-6 mm"}, {"measurement": "Growth Inhibition SA", "setting": "[1]; Day 3", "value": "E 3-4 mm"}, {"measurement": "Growth Inhibition SA", "setting": "[1]; Day 4", "value": "E 2-4 mm"}]}, {"molecule": "N=C(NCCCCCCNC(=N)NC(=N)Nc1ccc(Cl)cc1)NC(=N)Nc1ccc(Cl)cc1", "note": "[CHXG, chlorohexidine gluconate]", "values": [{"measurement": "Microorganism Growth Inhibition EC", "setting": "[2]; [9]", "value": "E 3-4 mm"}, {"measurement": "Microorganism Growth Inhibition EC", "setting": "[2]; [10]", "value": "E 2-4 mm"}, {"measurement": "Microorganism Growth Inhibition EC", "setting": "[2]; [11]", "value": "E 2-3 mm"}, {"measurement": "Microorganism Growth Inhibition EC", "setting": "[2]; [12]", "value": "E 2-4 mm"}, {"measurement": "Microorganism Growth Inhibition EC", "setting": "[2]; [13]", "value": "E 2-3 mm"}, {"measurement": "Microorganism Growth Inhibition EC", "setting": "[2]; [14]", "value": "E 3-4 mm"}, {"measurement": "Microorganism Growth Inhibition SE", "setting": "[3]; [9]", "value": "E 4 mm"}, {"measurement": "Microorganism Growth Inhibition SE", "setting": "[3]; [11]", "value": "E 3 mm"}, {"measurement": "Microorganism Growth Inhibition SE", "setting": "[3]; [12]", "value": "E 2-3 mm"}, {"measurement": "Microorganism Growth Inhibition SE", "setting": "[3]; [13]", "value": "E 3-5 mm"}, {"measurement": "Microorganism Growth Inhibition SE", "setting": "[3]; [14]", "value": "E 4-5 mm"}, {"measurement": "Microorganism Growth Inhibition PA", "setting": "[4]; [9]", "value": "E 1 mm"}, {"measurement": "Microorganism Growth Inhibition PA", "setting": "[4]; [10]", "value": "d (growth inhibition beyond the matrix, but at less than 1 mm)"}, {"measurement": "Microorganism Growth Inhibition PA", "setting": "[4]; [11]", "value": "E 1 mm"}, {"measurement": "Microorganism Growth Inhibition PA", "setting": "[4]; [13]", "value": "d (growth inhibition beyond the matrix, but at less than 1 mm)"}, {"measurement": "Microorganism Growth Inhibition PA", "setting": "[4]; [14]", "value": "E 1-2 mm"}, {"measurement": "Growth Inhibition SA", "setting": "[1]; Day 1", "value": "E 4-5 mm"}, {"measurement": "Growth Inhibition SA", "setting": "[1]; Day 2", "value": "E 3-4 mm"}, {"measurement": "Growth Inhibition SA", "setting": "[1]; Day 3", "value": "E 2-3 mm"}, {"measurement": "Growth Inhibition SA", "setting": "[1]; Day 4", "value": "E 2-3 mm"}, {"measurement": "Microorganism Growth Inhibition SA", "setting": "[5]; [9]", "value": "E 4-5 mm"}, {"measurement": "Microorganism Growth Inhibition SA", "setting": "[5]; [10]", "value": "E 3-5 mm"}, {"measurement": "Microorganism Growth Inhibition SA", "setting": "[5]; [11]", "value": "E 3-5 mm"}, {"measurement": "Microorganism Growth Inhibition SA", "setting": "[5]; [12]", "value": "E 2-5 mm"}, {"measurement": "Microorganism Growth Inhibition SA", "setting": "[5]; [13]", "value": "E 5-7 mm"}, {"measurement": "Microorganism Growth Inhibition SA", "setting": "[5]; [14]", "value": "E 4-5 mm"}]}, {"molecule": "Clc1nc(Cl)nc(Cl)n1", "note": "[cyanuric chloric linking group, cyanuric chloride]", "values": [{"measurement": "LD50", "setting": "[6]", "value": 18, "unit": "mg/kg"}]}, {"molecule": "Septabicdidecyl dimethyl ammonium bromide [Example 868]", "values": [{"measurement": "Growth Inhibition SA", "setting": "[1]; Day 1", "value": "E 5-6 mm"}, {"measurement": "Growth Inhibition SA", "setting": "[1]; Day 2", "value": "E 5-6 mm"}, {"measurement": "Growth Inhibition SA", "setting": "[1]; Day 3", "value": "E 4-5 mm"}, {"measurement": "Growth Inhibition SA", "setting": "[1]; Day 4", "value": "E 3-4 mm"}]}, {"molecule": "CCCCCCCCCCCCCCCC[N+](C)(C)Cc1ccccc1.[Cl-]", "note": "[Example 861, Benzyl dimethyl hexocylammonium chloride]", "values": [{"measurement": "Growth Inhibition SA", "setting": "[1]; Day 1", "value": "E 3-5 mm"}, {"measurement": "Growth Inhibition SA", "setting": "[1]; Day 2", "value": "E 3-4 mm"}, {"measurement": "Growth Inhibition SA", "setting": "[1]; Day 3", "value": "E 3-4 mm"}, {"measurement": "Growth Inhibition SA", "setting": "[1]; Day 4", "value": "E 2-3 mm"}]}, {"molecule": "[H]/N=C(\\N/C(=N/[H])NCCCCCCNC(=N)NC(=N)Nc1ccc(Cl)cc1)Nc1ccc(Cl)cc1", "note": "[chlorhexidine]", "values": [{"measurement": "inactivation of human immunodeficiency virus type I", "setting": "[7]", "value": 100, "unit": "%"}]}, {"molecule": "N=C(NCCCCCCNC(=N)NC(=N)Nc1ccc(Cl)cc1)NC(=N)Nc1ccc(Cl)cc1", "note": "[CHXH, chlorohexidine hydrochloride]", "values": [{"measurement": "Microorganism Growth Inhibition EC", "setting": "[2]", "value": "E 2-4 mm"}, {"measurement": "Microorganism Growth Inhibition EC", "setting": "[2]; [15]", "value": "E 2-3 mm"}, {"measurement": "Microorganism Growth Inhibition EC", "setting": "[2]; [16]", "value": "E 1-3 mm"}, {"measurement": "Microorganism Growth Inhibition EC", "setting": "[2]; [17]", "value": "E 1-3 mm"}, {"measurement": "Microorganism Growth Inhibition SE", "setting": "[3]", "value": "E 3-4 mm"}, {"measurement": "Microorganism Growth Inhibition SE", "setting": "[3]; [10]", "value": "E 2-3 mm"}, {"measurement": "Microorganism Growth Inhibition SE", "setting": "[3]; [16]", "value": "E 2 mm"}, {"measurement": "Microorganism Growth Inhibition SE", "setting": "[3]; [17]", "value": "E 1-2 mm"}, {"measurement": "Microorganism Growth Inhibition PA", "setting": "[4]", "value": "E 1-2 mm"}, {"measurement": "Microorganism Growth Inhibition SA", "setting": "[1]", "value": "E 5-6 mm"}, {"measurement": "Microorganism Growth Inhibition SA", "setting": "[5]; [15]", "value": "E 3-4 mm"}, {"measurement": "Microorganism Growth Inhibition SA", "setting": "[5]; [16]", "value": "E 3-4 mm"}, {"measurement": "Microorganism Growth Inhibition SA", "setting": "[5]; [17]", "value": "E 2-4 mm"}]}, {"molecule": "Bacitracin [Example 846]", "values": [{"measurement": "Growth Inhibition SA", "setting": "[8]; Day 1", "value": "E 4-6 mm"}, {"measurement": "Growth Inhibition SA", "setting": "[8]; Day 2", "value": "E 1-3 mm"}]}]}
